Measurements published in ChEMBL document CHEMBL1201862, “PubChem BioAssay data set” (2004).
The source made the active and inactive calls.

Columns and labels:
Vero = assay: host cell viability loss, Vero E6 – synthesized analogs, cytotoxicity control for West Nile virus antiviral project, SAR follow-up (AID 2244); assay type: functional; details: Chlorocebus sabaeus
[1] = target: Glucose-6-phosphate 1-dehydrogenase (Homo sapiens, UniProt P11413); assay: inhibition of Homo sapiens G6PD, dose series – biochemical, fluorescence, selectivity assay for P. falciparum G6PD inhibitor project, dose response (AID 504792); assay type: functional
Hexokinase HKDC1 = target: T1, Hexokinase HKDC1 (Homo sapiens, UniProt Q2TB90); assay: inhibition of HKDC1 glucose phosphorylation – biochemical, W721R variant, dose response (AID 504729); assay type: functional
T1 sequence (Q2TB90 whole entry): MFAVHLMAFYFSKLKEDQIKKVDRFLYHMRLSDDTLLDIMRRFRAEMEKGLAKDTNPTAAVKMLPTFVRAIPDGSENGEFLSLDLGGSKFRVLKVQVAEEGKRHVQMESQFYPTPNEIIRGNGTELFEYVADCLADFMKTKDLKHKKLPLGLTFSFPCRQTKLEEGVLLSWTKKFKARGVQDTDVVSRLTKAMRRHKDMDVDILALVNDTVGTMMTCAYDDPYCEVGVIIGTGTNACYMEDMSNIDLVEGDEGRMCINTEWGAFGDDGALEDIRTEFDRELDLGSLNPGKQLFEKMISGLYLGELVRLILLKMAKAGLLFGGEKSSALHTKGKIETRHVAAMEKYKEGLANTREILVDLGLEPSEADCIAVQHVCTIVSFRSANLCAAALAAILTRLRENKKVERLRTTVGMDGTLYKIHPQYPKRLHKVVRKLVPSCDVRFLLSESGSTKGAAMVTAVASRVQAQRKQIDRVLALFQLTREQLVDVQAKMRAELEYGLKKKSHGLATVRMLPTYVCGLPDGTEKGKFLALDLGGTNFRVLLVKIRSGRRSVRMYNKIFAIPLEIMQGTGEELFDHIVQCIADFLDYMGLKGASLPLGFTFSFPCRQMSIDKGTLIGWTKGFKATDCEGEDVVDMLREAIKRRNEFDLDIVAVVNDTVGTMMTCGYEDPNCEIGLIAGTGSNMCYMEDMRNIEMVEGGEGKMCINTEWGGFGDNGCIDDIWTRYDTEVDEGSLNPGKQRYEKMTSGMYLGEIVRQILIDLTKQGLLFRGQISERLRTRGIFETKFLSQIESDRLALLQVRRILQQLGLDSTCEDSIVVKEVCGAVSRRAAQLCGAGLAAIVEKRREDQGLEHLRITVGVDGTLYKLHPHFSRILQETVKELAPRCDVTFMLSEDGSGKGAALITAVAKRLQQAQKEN

Aminopeptidase N = target: T2, Aminopeptidase N (Plasmodium falciparum FcB1/Columbia, UniProt O96935); assay: malaria alanyl aminopeptidase activity blockers – biochemical, fluorogenic H-Leu-NHMec substrate, 1536-well (AID 1445); set-up: species or system Plasmodium falciparum 3D7, 3D7
T2 sequence (O96935 whole entry): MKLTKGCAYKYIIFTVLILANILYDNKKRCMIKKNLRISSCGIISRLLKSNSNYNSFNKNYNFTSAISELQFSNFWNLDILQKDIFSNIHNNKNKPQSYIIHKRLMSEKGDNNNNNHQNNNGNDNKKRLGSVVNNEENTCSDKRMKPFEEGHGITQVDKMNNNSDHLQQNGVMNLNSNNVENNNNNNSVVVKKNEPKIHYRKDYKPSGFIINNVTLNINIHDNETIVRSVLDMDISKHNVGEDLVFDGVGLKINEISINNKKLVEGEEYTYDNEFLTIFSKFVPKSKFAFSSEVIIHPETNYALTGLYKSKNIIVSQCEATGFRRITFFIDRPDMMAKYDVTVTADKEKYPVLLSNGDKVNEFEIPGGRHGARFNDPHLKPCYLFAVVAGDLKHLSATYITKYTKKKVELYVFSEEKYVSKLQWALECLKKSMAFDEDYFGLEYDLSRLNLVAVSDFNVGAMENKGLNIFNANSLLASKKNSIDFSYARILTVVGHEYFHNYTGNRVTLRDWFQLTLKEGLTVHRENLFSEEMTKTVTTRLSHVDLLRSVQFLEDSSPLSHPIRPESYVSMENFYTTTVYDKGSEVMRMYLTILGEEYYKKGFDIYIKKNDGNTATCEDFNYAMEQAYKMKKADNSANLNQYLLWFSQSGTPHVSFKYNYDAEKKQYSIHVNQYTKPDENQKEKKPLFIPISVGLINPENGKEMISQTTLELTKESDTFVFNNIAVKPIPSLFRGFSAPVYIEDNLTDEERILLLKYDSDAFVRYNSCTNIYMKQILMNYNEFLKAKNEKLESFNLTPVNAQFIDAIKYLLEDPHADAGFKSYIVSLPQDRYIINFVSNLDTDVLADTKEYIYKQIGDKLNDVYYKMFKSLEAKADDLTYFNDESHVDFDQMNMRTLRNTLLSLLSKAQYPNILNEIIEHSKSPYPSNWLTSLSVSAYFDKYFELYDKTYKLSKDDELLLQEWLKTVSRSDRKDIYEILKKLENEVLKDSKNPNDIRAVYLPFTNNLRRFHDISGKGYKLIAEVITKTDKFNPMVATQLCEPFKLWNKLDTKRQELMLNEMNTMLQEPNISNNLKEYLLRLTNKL

Prothrombin = Prothrombin (Bos taurus, UniProt P00735); assay: thrombin protease inhibitors – biochemical, fluorescence polarization, uHTS hits, dose response (AID 602369); assay type: functional
[2] = target: 72 kDa type IV collagenase (Homo sapiens, UniProt P08253); assay: Dose Response validation of uHTS RPN11 inhibitor hits using a MMP-2 Fluorescence assay.; assay type: functional
Nonstructural protein 1 = Nonstructural protein 1 (Influenza A virus, UniProt Q194T2); assay type: functional, Influenza A virus (A/California/07/2009(H1N1))
[3] = target: 26S proteasome non-ATPase regulatory subunit 14 (Homo sapiens, UniProt O00487); assay: inhibition of proteasome subunit RPN11 – biochemical, fluorescence polarization, uHTS hits, confirmation (AID 602368); assay type: functional
[4] = target: FAD-linked sulfhydryl oxidase ALR (Homo sapiens, UniProt P55789); assay: ALR-catalysed DTT oxidation blockers – biochemical, H2O2 detection, luminescence, cherry-pick, dose response (AID 493248)
[5] = Luminescence Cell-Based Dose Retest to Confirm Inhibitors of Cancer Stem Cells. [Related pubchem assays (depositor defined):AID2717, AID2721]; assay type: functional; details: Homo sapiens
INS1 = assay: INS-1E survival protection against cytokine death – cell-based, luminescence, retest, dose response (AID 449756); assay type: functional; details: Rattus norvegicus;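 also: cell death triggered by IL-1 beta plus TNF-alpha plus IFN-gamma mixture; protective hits raise ATP signal compared with cytokine alone wells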
[6] = target: T3, Short transient receptor potential channel 4 (Mus musculus, UniProt Q9QUQ5); assay: block of DAMGO-driven TRPC4 calcium entry – cell-based, HEK293 TRPC4/mu-opioid, Fluo-4 calcium, dose response (AID 434942); assay type: functional;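 also: potency of inhibitors blocking the TRPC4 calcium response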
T3 sequence (Q9QUQ5 whole entry): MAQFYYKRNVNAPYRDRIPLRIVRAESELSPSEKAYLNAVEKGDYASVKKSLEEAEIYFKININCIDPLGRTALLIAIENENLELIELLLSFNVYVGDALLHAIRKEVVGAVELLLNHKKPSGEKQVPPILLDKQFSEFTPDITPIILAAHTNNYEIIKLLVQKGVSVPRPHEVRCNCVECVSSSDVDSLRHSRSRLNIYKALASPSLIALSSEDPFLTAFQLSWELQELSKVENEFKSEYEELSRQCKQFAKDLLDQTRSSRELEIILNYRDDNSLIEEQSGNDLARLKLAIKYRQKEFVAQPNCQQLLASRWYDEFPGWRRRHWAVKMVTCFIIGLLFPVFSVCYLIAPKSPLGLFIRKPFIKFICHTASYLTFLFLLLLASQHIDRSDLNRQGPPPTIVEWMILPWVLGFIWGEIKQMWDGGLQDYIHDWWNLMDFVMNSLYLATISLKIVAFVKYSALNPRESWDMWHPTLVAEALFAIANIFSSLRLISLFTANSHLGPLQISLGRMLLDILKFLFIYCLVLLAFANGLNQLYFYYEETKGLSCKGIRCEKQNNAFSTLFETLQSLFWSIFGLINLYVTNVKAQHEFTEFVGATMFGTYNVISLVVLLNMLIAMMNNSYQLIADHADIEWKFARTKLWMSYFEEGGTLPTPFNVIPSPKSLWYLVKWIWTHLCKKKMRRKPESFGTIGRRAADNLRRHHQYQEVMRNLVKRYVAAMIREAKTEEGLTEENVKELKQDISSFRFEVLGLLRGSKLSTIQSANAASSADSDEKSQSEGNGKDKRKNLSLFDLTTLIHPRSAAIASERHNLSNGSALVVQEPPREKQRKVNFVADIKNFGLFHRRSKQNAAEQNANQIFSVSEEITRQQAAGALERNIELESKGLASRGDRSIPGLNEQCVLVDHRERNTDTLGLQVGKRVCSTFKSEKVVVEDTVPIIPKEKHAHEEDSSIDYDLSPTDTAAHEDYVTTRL

CAAX prenyl protease 2 = target: T4, CAAX prenyl protease 2 (Homo sapiens, UniProt Q9Y256); assay: inhibition of Ras-converting CAAX protease Rce1 – biochemical, yeast membranes, quenched-peptide fluorescence, cherry-pick, dose response (AID 588849)
T4 sequence (Q9Y256 whole entry): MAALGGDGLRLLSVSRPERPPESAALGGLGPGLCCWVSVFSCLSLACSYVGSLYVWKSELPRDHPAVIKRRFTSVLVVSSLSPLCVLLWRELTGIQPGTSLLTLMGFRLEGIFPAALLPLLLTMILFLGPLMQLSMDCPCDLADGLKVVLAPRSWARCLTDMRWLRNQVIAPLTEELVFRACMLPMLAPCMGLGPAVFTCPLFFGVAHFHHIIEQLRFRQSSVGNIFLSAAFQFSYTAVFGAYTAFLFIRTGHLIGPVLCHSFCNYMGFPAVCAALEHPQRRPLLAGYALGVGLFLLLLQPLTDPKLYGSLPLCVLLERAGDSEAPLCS

Trypsin = Trypsin (Sus scrofa, UniProt P00761); assay: trypsin protease activity blockade – biochemical, quenched peptide fluorescence, cherry-pick, selectivity assay for Rce1 protease inhibitor project, dose response (AID 488789)
Cytochrome P450 3A4 = Cytochrome P450 3A4 (Homo sapiens, UniProt P08684); details: Potency;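 also: confirmatory qHTS run detecting inhibitors and substrates of CYP3A4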
[7] = target: T5, Rac GTPase-activating protein 1 (Homo sapiens, UniProt Q9H0H5); assay: blockers of MgcRacGAP-driven Rac1 GTP hydrolysis – biochemical, ADP Hunter fluorescence, primary and confirmatory, confirmation (AID 624330); assay type: functional
T5 sequence (Q9H0H5 whole entry): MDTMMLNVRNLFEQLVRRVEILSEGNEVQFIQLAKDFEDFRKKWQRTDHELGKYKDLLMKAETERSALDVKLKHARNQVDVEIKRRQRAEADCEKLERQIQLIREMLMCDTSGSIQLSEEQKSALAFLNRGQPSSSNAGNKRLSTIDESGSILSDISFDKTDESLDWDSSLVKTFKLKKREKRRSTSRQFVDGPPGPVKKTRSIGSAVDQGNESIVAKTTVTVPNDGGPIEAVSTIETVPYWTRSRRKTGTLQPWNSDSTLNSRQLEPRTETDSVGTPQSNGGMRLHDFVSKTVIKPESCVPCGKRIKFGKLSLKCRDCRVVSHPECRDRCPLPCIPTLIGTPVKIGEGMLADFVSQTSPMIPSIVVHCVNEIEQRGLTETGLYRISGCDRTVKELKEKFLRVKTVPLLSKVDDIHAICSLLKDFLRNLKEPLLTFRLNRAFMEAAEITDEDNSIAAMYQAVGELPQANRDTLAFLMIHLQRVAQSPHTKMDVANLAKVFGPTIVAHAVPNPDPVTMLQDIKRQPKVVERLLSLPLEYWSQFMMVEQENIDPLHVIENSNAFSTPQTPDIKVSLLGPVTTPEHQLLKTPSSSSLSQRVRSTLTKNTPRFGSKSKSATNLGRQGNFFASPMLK

HeLa = assay: viability loss in HeLa cells – cell-based, 24 h, cherry-picked samples, cytotoxicity control, dose response (AID 504726); assay type: functional; details: Homo sapiens;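 also: potency for cytotoxicity as loss of luminescence signal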

Sequence of FAD-linked sulfhydryl oxidase ALR (P55789 whole entry): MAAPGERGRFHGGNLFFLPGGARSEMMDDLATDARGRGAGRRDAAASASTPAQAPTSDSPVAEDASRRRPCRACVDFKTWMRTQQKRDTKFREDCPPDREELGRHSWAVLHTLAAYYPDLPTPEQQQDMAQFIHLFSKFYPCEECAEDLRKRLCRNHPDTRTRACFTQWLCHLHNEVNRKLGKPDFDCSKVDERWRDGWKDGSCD
Sequence of Trypsin (P00761 whole entry): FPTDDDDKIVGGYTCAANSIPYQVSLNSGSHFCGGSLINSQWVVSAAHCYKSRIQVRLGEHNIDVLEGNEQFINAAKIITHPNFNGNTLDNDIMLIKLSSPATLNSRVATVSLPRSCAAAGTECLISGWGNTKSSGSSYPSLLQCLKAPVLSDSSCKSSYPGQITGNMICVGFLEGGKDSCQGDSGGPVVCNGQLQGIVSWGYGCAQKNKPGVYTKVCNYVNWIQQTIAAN
Sequence of Cytochrome P450 3A4 (P08684 whole entry): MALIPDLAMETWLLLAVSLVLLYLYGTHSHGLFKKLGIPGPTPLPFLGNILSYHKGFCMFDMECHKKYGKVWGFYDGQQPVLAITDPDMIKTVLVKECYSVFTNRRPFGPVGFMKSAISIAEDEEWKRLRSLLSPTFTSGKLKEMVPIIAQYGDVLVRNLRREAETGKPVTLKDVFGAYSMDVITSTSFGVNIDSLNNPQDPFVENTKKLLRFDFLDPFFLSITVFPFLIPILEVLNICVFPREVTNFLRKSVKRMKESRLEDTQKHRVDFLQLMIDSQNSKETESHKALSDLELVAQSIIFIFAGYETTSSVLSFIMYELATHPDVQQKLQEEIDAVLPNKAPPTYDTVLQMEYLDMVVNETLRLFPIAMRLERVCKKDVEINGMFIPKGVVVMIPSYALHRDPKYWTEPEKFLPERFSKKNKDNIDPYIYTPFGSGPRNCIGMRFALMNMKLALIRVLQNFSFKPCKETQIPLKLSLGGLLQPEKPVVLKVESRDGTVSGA
Sequence of Nonstructural protein 1 (Q194T2 whole entry): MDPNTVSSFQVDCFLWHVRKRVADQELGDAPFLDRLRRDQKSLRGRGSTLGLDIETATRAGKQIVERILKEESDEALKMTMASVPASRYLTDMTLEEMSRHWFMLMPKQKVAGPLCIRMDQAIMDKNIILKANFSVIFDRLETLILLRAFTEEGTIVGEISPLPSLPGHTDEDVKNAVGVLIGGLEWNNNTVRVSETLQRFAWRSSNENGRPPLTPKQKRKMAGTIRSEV
Sequence of 26S proteasome non-ATPase regulatory subunit 14 (O00487 whole entry): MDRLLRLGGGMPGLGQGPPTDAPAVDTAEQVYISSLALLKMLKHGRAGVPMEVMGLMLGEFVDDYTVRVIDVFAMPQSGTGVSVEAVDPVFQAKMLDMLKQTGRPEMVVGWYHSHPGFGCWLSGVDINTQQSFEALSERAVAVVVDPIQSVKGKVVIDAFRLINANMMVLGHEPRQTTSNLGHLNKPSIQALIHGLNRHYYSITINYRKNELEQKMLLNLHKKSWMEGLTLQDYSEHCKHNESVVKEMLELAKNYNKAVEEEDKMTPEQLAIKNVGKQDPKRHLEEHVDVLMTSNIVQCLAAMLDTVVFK
Sequence of Glucose-6-phosphate 1-dehydrogenase (P11413 whole entry): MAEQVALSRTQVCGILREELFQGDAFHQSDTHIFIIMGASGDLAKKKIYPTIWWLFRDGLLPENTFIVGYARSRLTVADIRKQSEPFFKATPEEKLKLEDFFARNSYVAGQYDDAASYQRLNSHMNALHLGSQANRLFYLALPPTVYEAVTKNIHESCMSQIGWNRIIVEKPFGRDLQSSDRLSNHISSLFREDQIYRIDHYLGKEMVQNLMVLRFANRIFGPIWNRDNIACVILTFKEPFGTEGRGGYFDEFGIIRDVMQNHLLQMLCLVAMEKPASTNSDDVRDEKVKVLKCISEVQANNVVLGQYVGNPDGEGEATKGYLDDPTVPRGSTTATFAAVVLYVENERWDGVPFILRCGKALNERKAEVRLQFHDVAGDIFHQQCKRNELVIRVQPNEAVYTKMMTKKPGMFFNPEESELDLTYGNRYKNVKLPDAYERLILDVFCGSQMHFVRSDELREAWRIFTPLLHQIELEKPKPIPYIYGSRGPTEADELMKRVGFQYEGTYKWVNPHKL
Sequence of 72 kDa type IV collagenase (P08253 whole entry): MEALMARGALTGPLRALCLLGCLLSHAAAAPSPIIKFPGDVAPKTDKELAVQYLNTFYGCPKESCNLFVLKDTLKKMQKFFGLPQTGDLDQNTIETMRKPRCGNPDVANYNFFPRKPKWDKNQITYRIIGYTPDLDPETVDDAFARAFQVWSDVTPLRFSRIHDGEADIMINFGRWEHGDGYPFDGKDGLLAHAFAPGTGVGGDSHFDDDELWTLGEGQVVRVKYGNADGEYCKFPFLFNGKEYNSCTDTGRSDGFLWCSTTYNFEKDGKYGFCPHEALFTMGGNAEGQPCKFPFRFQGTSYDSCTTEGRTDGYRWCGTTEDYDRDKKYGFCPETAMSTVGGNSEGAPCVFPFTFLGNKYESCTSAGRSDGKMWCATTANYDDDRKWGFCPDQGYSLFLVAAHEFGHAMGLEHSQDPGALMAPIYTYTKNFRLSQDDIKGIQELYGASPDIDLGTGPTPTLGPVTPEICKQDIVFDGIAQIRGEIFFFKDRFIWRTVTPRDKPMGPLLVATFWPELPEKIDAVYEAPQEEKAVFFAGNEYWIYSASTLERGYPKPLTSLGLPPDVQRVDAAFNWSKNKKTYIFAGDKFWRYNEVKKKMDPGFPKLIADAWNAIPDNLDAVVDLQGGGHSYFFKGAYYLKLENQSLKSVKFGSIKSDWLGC

Compound: COc1ccc(-c2csc(NC(=O)c3ccc(Cl)cc3)n2)cc1
- CC50 (Vero): > 40 µM (active)

Compound: COc1cc(/C=C2\SC(c3ccc(C)cc3)=NC2=O)ccc1O
- IC50 [1]: > 80 µM (inactive)
- IC50 (Hexokinase HKDC1): 38.3 µM (inactive)

Compound: CC(=O)Nc1cccc(NC(=O)C2CCCN2C(=O)Nc2cccc(F)c2)c1 (stereo not drawn)
- IC50 (Aminopeptidase N): 68.9 µM (active)

Compound: O=[N+]([O-])c1ccc(NN=Cc2ccc(O)cc2O)nc1
- IC50 (Hexokinase HKDC1): 6.23 µM (active)

Compound: O=C(Nc1nc(-c2ccc(Cl)cc2)cs1)c1cccc(Cl)c1
- CC50 (Vero): < 0.08 µM (active)

Compound: Cc1cc(O)nc(NN/C=C2/C(=O)N(c3ccccc3)C(=O)c3ccccc32)n1
- IC50 (Prothrombin): 37.2 µM (active)
- IC50 [2]: > 100 µM (inactive)
- IC50 (Nonstructural protein 1): 12 µM (active)
- IC50 (Aminopeptidase N): 47 µM (active)
- IC50 [3]: 18.4 µM (active)

Compound: Cc1ccc(NNC(=O)c2ccno2)cc1Cl
- AC50 [4]: 0.223 µM (active)
- AC50 [5]: 2.34 µM (active)
- AC50 (INS1): 7.1 µM (active)

Compound: COc1ccc(-c2csc(NC(=O)Cc3cccc4ccccc34)c2C(=O)O)cc1
- EC50 [6]: 7.5 µM (active)
- IC50 (Aminopeptidase N): 42.3 µM (active)

Compound: COc1cc(Cn2c(N)c(C(=O)NCc3ccco3)c3nc4ccccc4nc32)cc(OC)c1OC
- AC50 (CAAX prenyl protease 2): 3.86 µM (active)
- AC50 (Trypsin): 22.3 µM (active)

Compound: Cc1cc(-c2ccc(N)c(C)c2)ccc1N [ORTHOTOLIDINE]
- AC50 (Cytochrome P450 3A4): 20 µM (inconclusive)
- IC50 [7]: 12.2 µM (active)

Compound: COc1ccc(C2c3ccc(O)cc3Oc3ncn(CCCO)c(=N)c32)cc1OC (stereo not drawn)
- AC50 (HeLa): > 350 µM (inactive)

Compound: COc1ccc(/C=N/Nc2ccccn2)cc1OC
- AC50 [4]: 0.771 µM (active)

Compound: Cc1ccc2nc(C)cc(N/N=C/c3cccc(O)c3)c2c1
- AC50 [4]: 1.02 µM (active)
